# Several values for one entry are separate records, joined by “and”; a condition that tells them apart may be missing. Equal entries are not always repeated. Marks after values point to notes of the source that are not given here.
# How the values were obtained:
# [1] = tested on: B10.PL mice with acute EAE; test: Treatment of MBP-induced acute EAE in B10.PL mice, daily clinical EAE disability score; format: in vivo; parameters: key to cumulative disability (sum of daily disability scores; mean) / Cumulative disability / EAE severity (initial) / Remission (minimum) / EAE severity (final) / EAE severity (decrease): EAE score 0 = normal to 5 = moribund; cumulative = sum of daily scores; settings: for EAE severity (initial): score at randomization
# Procedure: Breeding pairs of B10.PL-H2^uH2-T18^a/(73NS)/SnJ (hereafter B10.PL) mice were purchased from the Jackson Laboratory (Bar Harbor, Me.). The experimental B10.PL mice were either bred in the pathogen-free mouse colony at the University of Wisconsin Department of Biochemistry, or purchased from the Jackson Laboratory. Mice were housed at 23° C. with 40-60% humidity, 12 hr light-dark cycles, and ad libidum access to water. Unless stated otherwise, the mice were fed Lab Diet #5008 (PMI Nutrition International, Inc., Brentwood, Mo.) containing 0.33 μg/d vitamin D3 and 1% calcium. Experiments used male and female mice aged 6-8 wks (age- and sex-matched within experiments). The University of Wisconsin College of Agricultural and Life Sciences Institutional Animal Care and Use Committee approved all of the experimental protocols.
# Bovine myelin basic protein (Sigma Chemical Co., St. Louis, Mo.) was dissolved at 2 mg/mL in 0.1 N acetic acid and emulsified with Complete Freund's adjuvant containing heat-killed Mycobacterium tuberculosis H37 Ra solution (Difco). Each mouse was injected subcutaneously with 0.1 mL emulsion in each hind flank (400 micrograms of MBP per mouse). On the day of immunization and again 2 days later, 200 nanograms of pertussis toxin was injected into the peritoneum. Thereafter, clinical EAE signs were scored daily as follows: 0, normal; 1, limp tail; 1.5, partial paralysis of one hind limb; 2, partial paralysis of both hind limbs; 2.5 partial paralysis of one hind limb and complete paralysis of one hind limb; 3, paralysis of both hind limbs; 4, hind and fore limb paralysis; 5, moribund.
# The vitamin D3 and 1,25-(OH)2D3 were obtained from Sigma Chemical Co. The vitamin D3 was dissolved in safflower oil and stored in the dark at 5° C. The 1,25-(OH)2D3 was dissolved in 100% ethanol (1 mg/mL) and stored in the dark under nitrogen gas at −20° C. The concentration of 1,25-(OH)2D3 was determined by spectral analysis. Animals with stage 2.3±0.3 were randomized into treatment groups. The details of the treatments are given in the figure legends and table footnotes. The synthetic diet used in some experiments was formulated to contain all essential nutrients except vitamin D3 and was prepared exactly as we described (Spach and Hayes, 2005, J. Immunol. 175:4119-4126). For experiments using supplementary vitamin D3, the placebo group was fed the synthetic diet ad libidum without added vitamin D3, whereas the vitamin D3-supplemented group was fed the synthetic diet ad libidum with vitamin D3 added in an amount to provide 1 μg/d, calculated based on a daily measured consumption of 4.0 g dry weight of diet per mouse. Fresh synthetic diet was provided three times per week. At several times during the study, mice were weighed and blood samples were obtained from the tail vein. At the conclusion of the study, the mice were euthanized, a blood sample was obtained, perfusion was done, and the spinal cords and optic nerves were removed. The spinal cords were flash frozen with liquid nitrogen and stored at −70° C. prior to 1,25-(OH)2D3 extraction. Alternatively, the spinal cords were divided into 6 equal sections, aligned vertically, snap frozen in O.C.T. compound (Sakura Finetek USA, Torrance, Calif.) and stored at −70° C. for histopathology. The blood was clotted, centrifuged, and the decanted serum was frozen at −70° C. prior to analysis.
# Individual mice were analyzed and the mean and SD were calculated for each group of mice. Experiments were repeated at least once. The significance of differences between the group means was determined using the Mann-Whitney test (n≦16), Student's t-test (n>16), or Chi-squared test (binomial data); p<0.05 was considered significant.
# MS = settings: daily calcitriol treatments, cited from earlier work
# [2] = female B10.PL mice, chow-fed, 20 ng pulse dose, 14 days post treatment
# [3] = female B10.PL mice, chow-fed, 200 ng injected once each week, 21 days
# [4] = female B10.PL mice, chow-fed, 200 ng injected once, 21 days post treatment
# [5] = female B10.PL mice, chow-fed, 200 ng pulse dose, 14 days post treatment
# [6] = female B10.PL mice, chow-fed, 400 ng pulse dose, 14 days post treatment
# [7] = female and male B10.PL mice, chow-fed, 0.5 (female) or 1.0 (male) nmol injected once, 14 days post treatment
# [8] = male B10.PL mice, chow-fed, 20 ng pulse dose, 14 days post treatment
# [9] = male B10.PL mice, chow-fed, 40 ng pulse dose, 14 days post treatment
# [10] = male B10.PL mice, chow-fed, 200 ng pulse dose, 14 days post treatment
# [11] = male B10.PL mice, chow-fed, 400 ng pulse dose, 14 days post treatment
# [12] = male and female B10.PL mice, 200 ng 1,25-(OH)2D3 injected, 5 μg vitamin D3 gavage 24 hr later, diet 1 μg/d vitamin D3
# [13] = methyl-prednisolone 200 μg/d followed by one 1,25-(OH)2D3 treatment, 28-day observation period
smiles,measurement,setting,value
"C=C1/C(=C\C=C2/CCC[C@]3(C)[C@@H]([C@H](C)CCCC(C)(C)O)CC[C@@H]23)C[C@@H](O)C[C@@H]1O [1,25-(OH)2D3, 1,25-dihydroxy vitamin D3]",relative potency for the treatment of acute EAE disability,"[1]; 0.5 nmol (females) or 1.0 nmol (males), compared with methyl-prednisolone",far superior to methyl-prednisolone
same,reduction of cumulative disability,"[1]; 200 ng 1,25-(OH)2D3 pulse dose plus vitamin D3 (serum 25-(OH)D3 82±27), 42 day observation period",48%
same,cumulative disability lower than the placebo group,"[1]; chow-fed mice with acute EAE, weekly injections of 200 ng",43%
same,EAE severity (decrease),[1]; [2],0.5 ± 1.0
same,EAE severity (final),[1]; [2],1.6 ± 1.0
same,Remission (%),[1]; [2],75%
same,Remission (days in),[1]; [2],8.0 ± 6.3 days
same,Remission (days to),[1]; [2],2.0 ± 0.0 days
same,EAE severity (initial),"[1]; female B10.PL mice, chow-fed, 20 ng pulse dose",2.1 ± 0.1
same,Cumulative disability,"[1]; female B10.PL mice, chow-fed, 20 ng pulse dose, sum of daily scores for 14 days",22.1 ± 9.0
same,EAE severity (peak),[1]; [3],2.4 ± 0.4
same,Remission,[1]; [3],15.7 ± 3.4 days
same,Remission (%),[1]; [3],100%
same,Remission (minimum),[1]; [3],1.0 ± 0.0
same,EAE severity (initial),"[1]; female B10.PL mice, chow-fed, 200 ng injected once each week",2.3 ± 0.5
same,Cumulative disability,"[1]; female B10.PL mice, chow-fed, 200 ng injected once each week, sum of daily scores for 21 days",31.6 ± 5.1
same,EAE severity (peak),[1]; [4],2.7 ± 0.4
same,Remission,[1]; [4],13.4 ± 3.9 days
same,Remission (minimum),[1]; [4],1.0 ± 0.4
same,Remission (%),"[1]; female B10.PL mice, chow-fed, 200 ng injected once, 21 days post treatment, remission = score ≦1.5 for two or more consecutive days",100%
same,EAE severity (initial),"[1]; female B10.PL mice, chow-fed, 200 ng injected once",2.6 ± 0.4
same,Cumulative disability,"[1]; female B10.PL mice, chow-fed, 200 ng injected once, sum of daily clinical scores for 21 days",32.9 ± 9.3
same,EAE severity (decrease),[1]; [5],1.6 ± 0.4
same,EAE severity (final),[1]; [5],1.0 ± 0.4
same,Remission (%),[1]; [5],100%
same,Remission (days in),[1]; [5],9.2 ± 2.5 days
same,Remission (days to),[1]; [5],5.8 ± 2.5 days
same,EAE severity (initial),"[1]; female B10.PL mice, chow-fed, 200 ng pulse dose",2.6 ± 0.4
same,Cumulative disability,"[1]; female B10.PL mice, chow-fed, 200 ng pulse dose, sum of daily scores for 14 days",21.8 ± 4.6
same,EAE severity (decrease),[1]; [6],1.2 ± 0.2
same,EAE severity (final),[1]; [6],1.0 ± 0.0
same,Remission (%),[1]; [6],100%
same,Remission (days in),[1]; [6],9.6 ± 3.0 days
same,Remission (days to),[1]; [6],6.2 ± 3.3 days
same,EAE severity (initial),"[1]; female B10.PL mice, chow-fed, 400 ng pulse dose",2.2 ± 0.2
same,Cumulative disability,"[1]; female B10.PL mice, chow-fed, 400 ng pulse dose, sum of daily scores for 14 days",20.6 ± 5.2
same,Cumulative disability,[1]; [7],19.7 ± 4.4
same,EAE severity (decrease),[1]; [7],1.2 ± 0.6
same,Remission (%),[1]; [7],92%
same,Remission (days in),[1]; [7],10.0 ± 2.2 days
same,Remission (days to),[1]; [7],4.9 ± 2.2 days
same,EAE severity (initial),"[1]; female and male B10.PL mice, chow-fed, 0.5 (female) or 1.0 (male) nmol of steroid compound injected once",2.3 ± 0.4
same,effectiveness for the treatment of EAE,"[1]; female mice, chow-fed, 20 ng pulse dose",partially effective
same,"remission lasted an average of, before a relapse occurred","[1]; female mice, chow-fed, 200 ng pulse dose",14 days
same,mice that achieved a remission (EAE≦1.5 for at least two consecutive days),"[1]; female mice, chow-fed, 200 ng pulse dose, within 6 days",100%
same,EAE severity (decrease),[1]; [8],0.7 ± 0.4
same,EAE severity (final),[1]; [8],1.4 ± 0.5
same,Remission (%),[1]; [8],80%
same,Remission (days in),[1]; [8],6.6 ± 4.6 days
same,Remission (days to),[1]; [8],6.3 ± 2.2 days
same,EAE severity (initial),"[1]; male B10.PL mice, chow-fed, 20 ng pulse dose",2.1 ± 0.2
same,Cumulative disability,"[1]; male B10.PL mice, chow-fed, 20 ng pulse dose, sum of daily scores for 14 days",24.2 ± 6.2
same,EAE severity (decrease),[1]; [9],0.5 ± 1.2
same,EAE severity (final),[1]; [9],1.7 ± 1.0
same,Remission (%),[1]; [9],80%
same,Remission (days in),[1]; [9],8.0 ± 4.6 days
same,Remission (days to),[1]; [9],4.5 ± 1.7 days
same,EAE severity (initial),"[1]; male B10.PL mice, chow-fed, 40 ng pulse dose",2.2 ± 0.4
same,Cumulative disability,"[1]; male B10.PL mice, chow-fed, 40 ng pulse dose, sum of daily scores for 14 days",25.0 ± 9.0
same,EAE severity (decrease),[1]; [10],1.0 ± 0.4
same,EAE severity (final),[1]; [10],1.3 ± 0.4
same,Remission (%),[1]; [10],100%
same,Remission (days in),[1]; [10],11.9 ± 2.0 days
same,Remission (days to),[1]; [10],6.3 ± 2.4 days
same,EAE severity (initial),"[1]; male B10.PL mice, chow-fed, 200 ng pulse dose",2.3 ± 0.3
same,Cumulative disability,"[1]; male B10.PL mice, chow-fed, 200 ng pulse dose, sum of daily scores for 14 days",22.1 ± 3.5
same,EAE severity (decrease),[1]; [11],1.2 ± 0.2
same,EAE severity (final),[1]; [11],0.8 ± 0.3
same,Remission (%),[1]; [11],86%
same,Remission (days in),[1]; [11],11.0 ± 1.4 days
same,Remission (days to),[1]; [11],4.2 ± 1.7 days
same,EAE severity (initial),"[1]; male B10.PL mice, chow-fed, 400 ng pulse dose",2.1 ± 0.4
same,Cumulative disability,"[1]; male B10.PL mice, chow-fed, 400 ng pulse dose, sum of daily scores for 14 days",16.9 ± 2.5
same,Remission,[1]; [12],36 ± 6 days
same,Remission (%),[1]; [12],100* %
same,mortality,[1]; [12],0%
same,Cumulative disability,"[1]; male and female B10.PL mice, 200 ng 1,25-(OH)2D3 injected, 5 μg vitamin D3 gavage, diet 1 μg/d vitamin D3, sum of daily scores for first 42 days post treatment",50 ± 14
same,Cumulative disability,[1]; [13],36±10
same,reduction of cumulative disability vs placebo group,[1]; [13],42%
same,amelioration of EAE disease,"[1]; mice with normal serum 25-(OH)D3 levels, 200 ng pulse dose in females and 400 ng pulse dose in males",optimally ameliorated EAE disease
same,mice that did not relapse,"[1]; one 1,25-(OH)2D3 treatment (females 200 ng; males 400 ng) after withdrawal of 200 μg/d methyl-prednisolone, 28-day observation period",4 of 6
same,days in remission before relapse (remaining two mice),"[1]; one 1,25-(OH)2D3 treatment (females 200 ng; males 400 ng) after withdrawal of methyl-prednisolone",14 days and 23 days
same,MS progression,MS,completely inhibited
same,patients who withdrew from the trial with symptomatic hypercalcemia,MS,2 of the 15
same,MS relapse rate (average),MS; decreased from 1.0/yr,0.2 /yr

# — patent publication US20090221538A1, “METHODS OF TREATING MULTIPLE SCLEROSIS BY ADMINISTERING PULSE DOSE CALCITRIOL” (priority 2008, published 2009)
